Test results as given in US20250092345A1, “INTER ORGAN PLATFORM FOR MICROPHYSIOLOGICAL SYSTEM ON A CHIP” (THE TRUSTEES OF COLUMBIA UNIVERSITY IN THE CITY OF NEW YORK, priority 2020, published 2025).

Columns and labels:
IGF-1 receptor = target: T1, IGF-1 receptor (Homo sapiens, UniProt P08069); test: Phospho-IGF1R ELISA in ES cell monolayers; format: cell-based; details: 12 μM for 6 hours
T1 construct: endogenous in cells; host or cells: RD-ES (ATCC HTB-166) and SK-N-MC (ATCC HTB-10) Ewing sarcoma cell lines

[1] = tested on: non-metastatic and metastatic GFP-luciferase ES cell lines (RD-ES, SK-N-MC); test: Luminescence viability of GFP-luciferase ES cell monolayers; format: cell-based, human; details: 12 μM over 72 hours; both the non-metastatic and metastatic cell lines
Description: MTT viability assay was used to determine drug toxicity, with luminescence generated by viable cells measured at the endpoint (10^4 cells per well, mean±s.e.m., n=3). […] In order to determine cancer cell viability, cells were lysed and treated with luciferin using a Bright-Glo™ assay, with subsequent luminescence measured (10^4 cells per well, mean±s.e.m., n=3).
Cell viability was analyzed using a previously established protocol. Cancer cell viability was measured for GFP-Luciferase labelled cancer cells using ONE-Glo luciferase substrate that was prepared according to manufacturer's protocol (Promega). Samples were collected following 3, 7, and 21 days cycles of linsitinib treatment. Where noted, longitudinal cell viability was also assessed using luminescence, though at the cost of signal strength. Briefly, in vivo grade VivoGlo™ Luciferin (Promega) was made at a 200× stock concentration (30 mg/ml) in water, added to sample culture media at a 1:200 dilution, and scanned using a spectrophotometer (Biotek). Some of the IC50 values were determined using cell viability data generated using an MTT assay (RealTime-Glo™ MT Cell Viability Assay, Promega) that were analyzed according to manufacturer's protocol.

[2] = tested on: engineered cardiac tissues; test: Cardiac tissue in the integrated platform with microfluidic perfusion, linsitinib; format: cell-based, human; details: after linsitinib exposure
Description: The TE-ES and cardiac tissues were then cultured in the integrated platform with perfusion of mixed media. Linsitinib was introduced into the reservoir and delivered to tissues via circulation of perfusate and diffusion into the tissues.
Human iPS cell-derived cardiomyocytes at day 13 of differentiation were combined with normal human dermal fibroblasts (NHDF; Lonza) at a ratio of 75% human iPS-derived cardiomyocytes and 25% NHDF, for a total of 1 million cells per tissue. The hydrogel was formed by mixing 33 mg/mL of human fibrinogen (Sigma-Aldrich) with 25 U/mL of human thrombin (Sigma-Aldrich), at an 84:16 ratio. […]
To measure the cardiac contractility online, we took contractility videos of the tissues that were analyzed using the native MATLAB code we previously developed. Tissue contractility was measured by tracking the change in tissue area as a function of time. […] Absolute differences in cell area from the baseline frame were then calculated to create a time course of cell area changes over time. The resulting time courses were analyzed using a native MATLAB (MATHWorks) automated peak finding algorithm to determine locations of maximum cell contractions in the time profiles. Beat period lengths were determined from the length of time between the pairs of local maxima, and the beat frequencies were determined by inverting beat periods. […]

T1 sequence (P08069 31-1367): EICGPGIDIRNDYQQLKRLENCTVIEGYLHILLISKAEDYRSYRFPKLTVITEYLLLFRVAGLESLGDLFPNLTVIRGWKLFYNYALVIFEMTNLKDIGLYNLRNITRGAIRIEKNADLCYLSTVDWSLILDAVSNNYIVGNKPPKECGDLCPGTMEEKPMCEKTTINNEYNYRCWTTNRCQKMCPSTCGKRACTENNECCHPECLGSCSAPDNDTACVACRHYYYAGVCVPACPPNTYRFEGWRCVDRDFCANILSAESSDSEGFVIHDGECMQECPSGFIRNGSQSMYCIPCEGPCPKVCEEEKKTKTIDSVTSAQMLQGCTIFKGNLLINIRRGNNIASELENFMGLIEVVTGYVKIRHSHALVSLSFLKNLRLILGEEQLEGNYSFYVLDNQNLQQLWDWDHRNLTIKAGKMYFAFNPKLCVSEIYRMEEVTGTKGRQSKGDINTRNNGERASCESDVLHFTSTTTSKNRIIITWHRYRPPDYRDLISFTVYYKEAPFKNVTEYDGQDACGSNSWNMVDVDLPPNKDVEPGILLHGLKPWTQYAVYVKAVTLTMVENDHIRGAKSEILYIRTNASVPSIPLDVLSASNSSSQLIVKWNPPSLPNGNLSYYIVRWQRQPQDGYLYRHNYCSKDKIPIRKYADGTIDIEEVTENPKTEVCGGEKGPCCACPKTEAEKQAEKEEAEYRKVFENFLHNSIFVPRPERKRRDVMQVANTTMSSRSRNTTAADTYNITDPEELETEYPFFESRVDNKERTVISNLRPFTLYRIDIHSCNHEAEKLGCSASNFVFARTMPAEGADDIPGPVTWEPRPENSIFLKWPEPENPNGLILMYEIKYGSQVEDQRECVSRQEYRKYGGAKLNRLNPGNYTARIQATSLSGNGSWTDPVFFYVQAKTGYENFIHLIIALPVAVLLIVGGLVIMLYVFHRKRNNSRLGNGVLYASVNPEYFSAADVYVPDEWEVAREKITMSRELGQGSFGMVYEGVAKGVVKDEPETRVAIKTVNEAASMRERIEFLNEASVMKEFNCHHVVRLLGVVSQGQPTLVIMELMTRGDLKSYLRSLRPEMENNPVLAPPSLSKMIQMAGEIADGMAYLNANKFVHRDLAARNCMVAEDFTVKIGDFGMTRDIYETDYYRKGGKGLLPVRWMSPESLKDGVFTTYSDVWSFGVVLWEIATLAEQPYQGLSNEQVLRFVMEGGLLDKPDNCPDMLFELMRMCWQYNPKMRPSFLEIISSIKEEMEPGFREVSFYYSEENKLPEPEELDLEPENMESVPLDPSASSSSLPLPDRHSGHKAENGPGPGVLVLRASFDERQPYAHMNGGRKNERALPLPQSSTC

C[C@]1(O)C[C@@H](c2nc(-c3ccc4ccc(-c5ccccc5)nc4c3)c3c(N)nccn32)C1 [linsitinib]
levels of phosphorylated IGF-1R (IGF-1 receptor): significant decreases | drug efficacy (luminescence viability) [1]: significant drug efficacy | inotropic response to subsequent isoproterenol [2]: expected inotropic response
